Test results published in patent US20240092835A1, “NOVEL PEPTIDES CAPABLE OF ALTERING NK CELL ACTIVITY” (Massachusetts Institute of Technology, priority 2022, published 2024).

Legend:
[1] = tested on: NKG2A+/NKG2C− NK cells; assay: NK cell activation markers in NKG2A+/NKG2C- NK cells incubated with peptide and K562 expressing HLA-E (inhibition); type: cell-based, human; settings: for effect on NKG2A+/NKG2C− NK cell inhibition (in words): K562 expressing HLA-E, CD107a, IFNG, TNF, CCL3; for percentage of CCL3+ NK cells / percentage of CD107a+ NK cells / percentage of IFNG+ NK cells / percentage of TNF+ NK cells: NKG2A+/NKG2C- NK cells, K562/HLA-E
Experimental: (§1) A human immortalized myelogenous leukemia cell line (K562), which expresses HLA-E was incubated with novel peptides (Table 1) derived from the human proteome or human cytomegalovirus proteome. […] Controls assessments were also performed using NKG2A−/NKG2C− cells (Tables 10-13). Inhibition was indicated by a decrease in percent cells positive for cell surface markers, while activation was indicated by an increase in percent cells positive for cell surface markers.

[2] = tested on: NKG2A−/NKG2C− NK cells; assay: NK cell activation markers in control NKG2A-/NKG2C- NK cells incubated with peptide and K562 expressing HLA-E; type: cell-based, human
Experimental: as §1

[3] = tested on: NKG2A−/NKG2C+ NK cells; assay: NK cell activation markers in NKG2A-/NKG2C+ NK cells incubated with peptide and K562 expressing HLA-E (activation); type: cell-based, human; settings: for effect on NKG2A−/NKG2C+ NK cell activation (in words): K562 expressing HLA-E, CD107a, IFNG, TNF, CCL3; for percentage of CCL3+ NK cells / percentage of CD107+ NK cells / percentage of IFNG+ NK cells / percentage of TNF+ NK cells: NKG2A-/NKG2C+ NK cells, K562/HLA-E
Experimental: as §1

[4] = molecular target: T1, HLA-E (Homo sapiens, UniProt P13747); assay: HLA-E surface stabilization assay with RMA-S/HLA-E cells; type: cell-based; settings: 30 μM peptide, 16 hours, anti-HLA-E antibody
T1 construct: expressed in transfected cells; host or cells: RMA-S/HLA-E cells (antigen processing-defective lymphoma cell line)
Experimental: HLA-E surface expression was assessed by measuring geometric mean fluorescence intensity (GeoMFI) in RMA-S cells following immunofluorescence staining with an anti-HLA-E antibody (Table 14). Increased GeoMFI was indicative of increased HLA-E surface expression stability following novel peptide exposures (FIG. 3).

T1 sequence (P13747 22-358): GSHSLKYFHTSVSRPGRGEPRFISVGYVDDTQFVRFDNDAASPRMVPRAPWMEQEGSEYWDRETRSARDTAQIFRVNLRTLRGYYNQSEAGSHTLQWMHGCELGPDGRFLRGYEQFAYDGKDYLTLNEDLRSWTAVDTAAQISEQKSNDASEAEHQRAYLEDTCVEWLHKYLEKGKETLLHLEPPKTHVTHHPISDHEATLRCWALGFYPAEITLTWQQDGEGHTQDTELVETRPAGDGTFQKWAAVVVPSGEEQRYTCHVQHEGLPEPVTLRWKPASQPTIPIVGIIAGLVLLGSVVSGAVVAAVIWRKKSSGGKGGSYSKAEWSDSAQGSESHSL
T1 sequence (P61769 21-119 partner): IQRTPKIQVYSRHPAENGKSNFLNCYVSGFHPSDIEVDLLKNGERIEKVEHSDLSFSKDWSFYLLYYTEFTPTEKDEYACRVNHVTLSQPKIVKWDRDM

“VMPGRTLCF [human11, peptide TACR3 226-234 derived from the human proteome]” was tested. Which “effect on NKG2A+/NKG2C− NK cell inhibition (in words)” value [1] did it give?
The value was “strong inhibitory”.

What about the “percentage of CCL3+ NK cells” value ([1]; Trial 1) of the same sequence?
The value was 4.05%.

What about the “percentage of CD107a+ NK cells” value ([1]; Trial 1) of the same sequence?
Its value is 0.35%.

And the “percentage of IFNG+ NK cells” value ([1]; Trial 1)?
Its value is 0.13%.

What about the “percentage of TNF+ NK cells” value ([1]; Trial 1) of the same sequence?
The value was 0.05%.

What about the “percentage of CCL3+ NK cells” value ([1]; Trial 2) of the same sequence?
Its value is 7.9%.

And the “percentage of CD107a+ NK cells” value ([1]; Trial 2)?
The value was 1.08%.

And the “percentage of IFNG+ NK cells” value ([1]; Trial 2)?
The value was 0.53%.

What about the “percentage of TNF+ NK cells” value ([1]; Trial 2) of the same sequence?
Its value is 0.21%.

And the “percentage of CCL3+ NK cells” value ([1]; Trial 3)?
Its value is 3.93%.

What about the “percentage of CD107a+ NK cells” value ([1]; Trial 3) of the same sequence?
Its value is 1.25%.

What about the “percentage of IFNG+ NK cells” value ([1]; Trial 3) of the same sequence?
Its value is 0.6%.

And the “percentage of TNF+ NK cells” value ([1]; Trial 3)?
Its value is 0.35%.

And the “percentage of CCL3+ NK cells” value ([1]; Trial 4)?
The value was 1.77%.

What about the “percentage of CD107a+ NK cells” value ([1]; Trial 4) of the same sequence?
Its value is 1.09%.

What about the “percentage of IFNG+ NK cells” value ([1]; Trial 4) of the same sequence?
Its value is 0.29%.

And the “percentage of TNF+ NK cells” value ([1]; Trial 4)?
The value was 0.23%.

What about the “percentage of CCL3+ NK cells” value ([1]; Trial 5) of the same sequence?
Its value is 2.68%.

What about the “percentage of CD107a+ NK cells” value ([1]; Trial 5) of the same sequence?
Its value is 0.66%.

What about the “percentage of IFNG+ NK cells” value ([1]; Trial 5) of the same sequence?
The value was 0.09%.

What about the “percentage of TNF+ NK cells” value ([1]; Trial 5) of the same sequence?
Its value is 0%.

And the “percentage of CCL3+ NK cells” value ([1]; Trial 6)?
The value was 1.02%.

And the “percentage of CD107a+ NK cells” value ([1]; Trial 6)?
The value was 1.02%.

What about the “percentage of IFNG+ NK cells” value ([1]; Trial 6) of the same sequence?
The value was 0.05%.

And the “percentage of TNF+ NK cells” value ([1]; Trial 6)?
Its value is 0%.

What about the “percentage CCL3+ NK cells” value ([2]; Trial 1) of the same sequence?
Its value is 27.1%.

And the “percentage CD107+ NK cells” value ([2]; Trial 1)?
Its value is 21.7%.

And the “percentage TNF+ NK cells” value ([2]; Trial 1)?
The value was 3.75%.

What about the “percentage of IFNG+ NK cells” value ([2]; Trial 1) of the same sequence?
Its value is 11.4%.

And the “percentage CCL3+ NK cells” value ([2]; Trial 2)?
Its value is 49.5%.

What about the “percentage CD107+ NK cells” value ([2]; Trial 2) of the same sequence?
Its value is 28.7%.

And the “percentage TNF+ NK cells” value ([2]; Trial 2)?
The value was 7.72%.

And the “percentage of IFNG+ NK cells” value ([2]; Trial 2)?
Its value is 21.3%.

And the “percentage CCL3+ NK cells” value ([2]; Trial 3)?
Its value is 44.1%.

What about the “percentage CD107+ NK cells” value ([2]; Trial 3) of the same sequence?
Its value is 38.6%.

What about the “percentage TNF+ NK cells” value ([2]; Trial 3) of the same sequence?
The value was 14.8%.

What about the “percentage of IFNG+ NK cells” value ([2]; Trial 3) of the same sequence?
The value was 33.5%.

And the “percentage CCL3+ NK cells” value ([2]; Trial 4)?
Its value is 30.9%.

And the “percentage CD107+ NK cells” value ([2]; Trial 4)?
The value was 28.9%.

What about the “percentage TNF+ NK cells” value ([2]; Trial 4) of the same sequence?
Its value is 9.48%.

What about the “percentage of IFNG+ NK cells” value ([2]; Trial 4) of the same sequence?
The value was 18.5%.

What about the “percentage CCL3+ NK cells” value ([2]; Trial 5) of the same sequence?
The value was 18.3%.

And the “percentage CD107+ NK cells” value ([2]; Trial 5)?
Its value is 14.9%.

What about the “percentage TNF+ NK cells” value ([2]; Trial 5) of the same sequence?
Its value is 3.82%.

What about the “percentage of IFNG+ NK cells” value ([2]; Trial 5) of the same sequence?
Its value is 10.5%.

What about the “percentage CCL3+ NK cells” value ([2]; Trial 6) of the same sequence?
The value was 13.7%.

And the “percentage CD107+ NK cells” value ([2]; Trial 6)?
Its value is 14.8%.

And the “percentage TNF+ NK cells” value ([2]; Trial 6)?
Its value is 2.69%.

What about the “percentage of IFNG+ NK cells” value ([2]; Trial 6) of the same sequence?
The value was 6.09%.

What about the “effect on NKG2A−/NKG2C+ NK cell activation (in words)” value [3] of the same sequence?
The value was “strong activating effects”.

What about the “percentage of CCL3+ NK cells” value ([3]; Trial 1) of the same sequence?
Its value is 72.1%.

What about the “percentage of CD107+ NK cells” value ([3]; Trial 1) of the same sequence?
Its value is 70.6%.

What about the “percentage of IFNG+ NK cells” value ([3]; Trial 1) of the same sequence?
The value was 63.1%.

What about the “percentage of TNF+ NK cells” value ([3]; Trial 1) of the same sequence?
Its value is 57.2%.

And the “percentage of CCL3+ NK cells” value ([3]; Trial 2)?
Its value is 83.5%.

What about the “percentage of CD107+ NK cells” value ([3]; Trial 2) of the same sequence?
Its value is 79.9%.

And the “percentage of IFNG+ NK cells” value ([3]; Trial 2)?
The value was 76.4%.

And the “percentage of TNF+ NK cells” value ([3]; Trial 2)?
Its value is 71.3%.

And the “percentage of CCL3+ NK cells” value ([3]; Trial 3)?
The value was 80.8%.

And the “percentage of CD107+ NK cells” value ([3]; Trial 3)?
The value was 81%.

And the “percentage of IFNG+ NK cells” value ([3]; Trial 3)?
Its value is 76.8%.

And the “percentage of TNF+ NK cells” value ([3]; Trial 3)?
The value was 72%.

What about the “percentage of CCL3+ NK cells” value ([3]; Trial 4) of the same sequence?
The value was 65%.

What about the “percentage of CD107+ NK cells” value ([3]; Trial 4) of the same sequence?
The value was 66.8%.

And the “percentage of IFNG+ NK cells” value ([3]; Trial 4)?
The value was 59.4%.

And the “percentage of TNF+ NK cells” value ([3]; Trial 4)?
Its value is 53.6%.

What about the “percentage of CCL3+ NK cells” value ([3]; Trial 5) of the same sequence?
Its value is 69.8%.

What about the “percentage of CD107+ NK cells” value ([3]; Trial 5) of the same sequence?
Its value is 70.2%.

And the “percentage of IFNG+ NK cells” value ([3]; Trial 5)?
The value was 65%.

What about the “percentage of TNF+ NK cells” value ([3]; Trial 5) of the same sequence?
Its value is 62.5%.

And the “percentage of CCL3+ NK cells” value ([3]; Trial 6)?
Its value is 39.9%.

What about the “percentage of CD107+ NK cells” value ([3]; Trial 6) of the same sequence?
The value was 42.5%.

What about the “percentage of IFNG+ NK cells” value ([3]; Trial 6) of the same sequence?
The value was 35.3%.

What about the “percentage of TNF+ NK cells” value ([3]; Trial 6) of the same sequence?
Its value is 33.5%.

And the “HLA-E surface expression stability (GeoMFI)” value ([4]; Trial 1)?
The value was 3152 GeoMFI.

And the “HLA-E surface expression stability (GeoMFI)” value ([4]; Trial 2)?
The value was 2914 GeoMFI.

And the “HLA-E surface expression stability (GeoMFI)” value ([4]; Trial 3)?
The value was 3432 GeoMFI.

What about the “HLA-E surface expression stability (GeoMFI)” value ([4]; Trial 4) of the same sequence?
The value was 3610 GeoMFI.

What does the source list for RMPPRSVLL [human12]?
effect on NKG2A+/NKG2C− NK cell inhibition (in words) [1]: strong inhibitory; percentage of CCL3+ NK cells ([1]; Trial 1): 1.94%; percentage of CD107a+ NK cells ([1]; Trial 1): 0.85%; percentage of IFNG+ NK cells ([1]; Trial 1): 0.14%; percentage of TNF+ NK cells ([1]; Trial 1): 0.03%; percentage of CCL3+ NK cells ([1]; Trial 2): 2.96%; percentage of CD107a+ NK cells ([1]; Trial 2): 0.99%; percentage of IFNG+ NK cells ([1]; Trial 2): 0.32%; percentage of TNF+ NK cells ([1]; Trial 2): 0.17%; percentage of CCL3+ NK cells ([1]; Trial 3): 2.9%; percentage of CD107a+ NK cells ([1]; Trial 3): 1.25%; percentage of IFNG+ NK cells ([1]; Trial 3): 0.65%; percentage of TNF+ NK cells ([1]; Trial 3): 0.45%; percentage CCL3+ NK cells ([2]; Trial 1): 29.3%; percentage CD107+ NK cells ([2]; Trial 1): 20.2%; percentage TNF+ NK cells ([2]; Trial 1): 3.43%; percentage of IFNG+ NK cells ([2]; Trial 1): 10.2%; percentage CCL3+ NK cells ([2]; Trial 2): 51.6%; percentage CD107+ NK cells ([2]; Trial 2): 29%; percentage TNF+ NK cells ([2]; Trial 2): 9.58%; percentage of IFNG+ NK cells ([2]; Trial 2): 24%; percentage CCL3+ NK cells ([2]; Trial 3): 46.5%; percentage CD107+ NK cells ([2]; Trial 3): 42%; percentage TNF+ NK cells ([2]; Trial 3): 15.5%; percentage of IFNG+ NK cells ([2]; Trial 3): 36.2%; effect on NKG2A−/NKG2C+ NK cell activation (in words) ([3]; listed as SEQ ID NO. 13): strong activating effects; effect on NKG2A−/NKG2C+ NK cell activation (in words) ([3]; listed as h12): strong inhibitory and activating effects; percentage of CCL3+ NK cells ([3]; Trial 1): 55.3%; percentage of CD107+ NK cells ([3]; Trial 1): 36.5%; percentage of IFNG+ NK cells ([3]; Trial 1): 20.7%; percentage of TNF+ NK cells ([3]; Trial 1): 12.6%; percentage of CCL3+ NK cells ([3]; Trial 2): 83.9%; percentage of CD107+ NK cells ([3]; Trial 2): 77%; percentage of IFNG+ NK cells ([3]; Trial 2): 63.3%; percentage of TNF+ NK cells ([3]; Trial 2): 52.7%; percentage of CCL3+ NK cells ([3]; Trial 3): 81.7%; percentage of CD107+ NK cells ([3]; Trial 3): 80.3%; percentage of IFNG+ NK cells ([3]; Trial 3): 66.3%; percentage of TNF+ NK cells ([3]; Trial 3): 59.6%; HLA-E surface expression stability (GeoMFI) ([4]; Trial 1): 3779 GeoMFI; HLA-E surface expression stability (GeoMFI) ([4]; Trial 2): 4219 GeoMFI; HLA-E surface expression stability (GeoMFI) ([4]; Trial 3): 4273 GeoMFI; HLA-E surface expression stability (GeoMFI) ([4]; Trial 4): 4705 GeoMFI
